According to patent publication US20060069095A1, “Azole derivatives” (priority 2004, published 2006):

Tests used:
HEK293 cells = assay: CellTiter-Glo Luminescent Cell Viability Assay in HEK293 cells; assay type: cell-based; settings: Homo sapiens, 168 h, 7 days incubation, 3 μM to 0.00015 μM
From the text: CellTiter-Glo™ Assay in HEK293 Cells
The CellTiter-Glo™ Luminescent Cell Viability Assay (Promega) is a homogeneous method of determining the number of viable cells in culture based on quantitation of the ATP present, which signals the presence of metabolically active cells.
HEK293 cells (human embryonic kidney cell line transformed by Adenovirus 5 fragments, ATCC-No. CRL 1573) were cultivated in Dulbecco's Modified Eagle Medium (DMEM) with Glutamax™ (Invitrogen, 31966-021), 5% Fetal Calf Serum (FCS, Sigma Cat-No. F4135 (FBS)), 100 Units/ml penicillin/100 μg/ml streptomycin (=Pen/Strep from Invitrogen Cat. No. 15140)., For the assay the cells were seeded in 384 well plates, 5000 cells per well, in the same medium. The next day the test compounds were added in various concentrations ranging from 3 μM to 0.00015 μM (10 concentrations, 1:3 diluted). After 7 days the CellTiter-Glo™ assay was done according to the instructions of the manufacturer (CellTiter-Glo™ Luminescent Cell Viability Assay, from Promega). In brief: the cell-plate was equilibrated to room temperature for approximately 30 minutes and than the CellTiter-Glo™ reagent was added. The contents were carefully mixed for 15 minutes to induce cell lysis. After 45 minutes the luminescent signal was measured in Victor 2, (scanning multiwell spectrophotometer, Wallac).
Medium: Dulbecco's Modified Eagle Medium (DMEM) with Glutamax™ (Invitrogen, 31966-021), 5% Fetal Calf Serum (FCS, Sigma Cat-No. F4135 (FBS)), Pen/Strep (Invitrogen Cat. No. 15140).
Incubate 24 h at 37° C., 5% CO2
2nd Day: Induction (Substance Testing):
In general the dilution steeps are 1:3 • a) Add 8 μl of 10 mM stock solution of compound to 72 μl DMSO • b) dilute 9×1:3 (always 30 μl to 60 μl DMSO) in this DMSO dilution row (results in 10 wells with concentrations from 1000 μM to 0.06 μM) • c) dilute each concentration 1:4.8 (10 μl compound dilution to 38 μl medium) • d) dilute each concentration 1:10 (10 μl compound dilution to 90 μl medium) • e) add 10 μl of every concentration to 60 μl medium in the cell plate • resulting in final concentration of DMSO: 0.3% in every well • and resulting in final concentration of compounds from 3 μM to 0.00015 μM • Incubate 168 h (7 days) at 37° C., 5% CO2
Analysis: • Add 30 μl CellTiter-Glo™ Reagent/well, • shake 15 minutes at room temperature • incubate further 45 minutes at room temperature without shaking.
Measurement: • Victor 2 scanning multiwell spectrophotometer (Wallac), Luminescence mode • Determine IC50 with XL-fit (XLfit software (ID Business Solution Ltd., Guilford, Surrey, UK)).

A549 cells = assay: MTT assay in A549 cells; assay type: cell-based, human; settings: 5 days incubation, 3 μM to 0.15 nM
Protocol: To further show the activity of the compounds according to this invention, their effects on a […] was evaluated using a standard MTT-assay. MTT (3-(4,5-dimethylthiazol-2-yl)-2,5-diphenyl tetrazolium bromide) is widely used for the quantitative determination of cytotoxic effects or in vitro chemosensitivity of tumor cells. The assay is based on the cleavage of the yellow tetrazolium salt (MTT) to purple formazan crystals by metabolic active cells. For details, see Rubinstein, L. V., et al., J. Natl. Cancer Inst. 82 (1990) 1113-1118.
A549 cells (human lung carcinoma cell line ATTC-No. CCL-185) were cultivated in RPMI (Roswell Park Memorial Institute) 1640 medium with GlutaMAX™ I (Invitrogen, Cat-No. 61870-010), 2,5% Fetal Calf Serum (FCS, Sigma Cat-No. F4135 (FBS)); 100 Units/ml penicillin/100 μg/ml streptomycin (=Pen/Strep from Invitrogen Cat. No. 15140). For the assay the cells were seeded in 384 well plates, 900 cells per well, in the same medium. The next day compounds (dissolved 10 mM in dimethylsulfoxide (DMSO)) were added in various concentrations ranging from 3 μM to 0.15 nM (10 concentrations, 1:3 diluted). After 5 days MTT assay was done mainly according to the instructions of the manufacturer (Cell proliferation kit I, MTT, from Roche Molecular Biochemicals). In brief: MTT labeling reagent (3-(4,5-dimethylthiazol-2-yl)-2,5-diphenyltetrazolium bromide (MTT)) was added to a final concentration of 0.5 mg/ml, added and incubated for 4 hrs at 37° C., 5% CO2. During this incubation time purple formazan crystals are formed. After addition of the solubilization solution (20% Sodium Dodecyl Sulfate (SDS) in 0.02 M HCl) the plates were incubated overnight at 37° C., 5% CO2. After careful mixing plates were measured in Victor 2 scanning multiwell spectrophotometer (Wallac) at 550 nm.
A decrease in number of living cells results in a decrease in the total metabolic activity in the sample. The decrease directly correlates to the amount of purple color resulting from the solubilization of the purple formazan crystals.
• A549: 900 cells in 60 μl per well of 384 well plate (Greiner) • Medium: RPMI 1640, 2.5% FCS, glutamine, Pen/Strep. • Incubate 1 day at 37° C.
Induction: • Dilution of compound in DMSO: 3 μl 10 mM+27 μl DMSO, dilute 1:3 • Add 2 μl of compound dilution row to 95 μl of medium • Add 10 μl of compound dilution to 60 μl medium in test plate resulting in 0.3% DMSO per well • Incubate 120 h (5 days) at 37° C., 5% CO2
Analysis: • Add 7 μl MTT (5 mg/7 ml/well), incubate 4 h at 37° C. • Add 30 μl lysis buffer (20% SDS, 0.04 N HCl) per well • Incubate overnight at 37° C.
Measurement: • Victor 2 scanning multiwell spectrophotometer (Wallac) at 550 nm
Determination of IC50 was done using XL-fit (XLfit software (ID Business Solution Ltd., Guilford, Surrey, UK)).

A549-Cell-Xenograft = assay: In vivo assay on tumor inhibition (A549 xenograft); design: species or system mice; settings: daily dosage of 80 mg/kg, oral, after 23 days of treatment (44 days of experiment), median tumor volume
Protocol: In vivo Assay on Tumor Inhibition:
To generate primary tumors, Non-Small-Cell Lung Cancer (NSCLC) (e.g. Calu-3 (ATTC HTB-55) or A549 (ATTC CCL-185)) cells (4-5.0×10^6 in a volume of 100 μl) are injected subcutaneously into the left flank of female SCID beige (Severe Combined Immunodeficient/beige mice available from Charles River, Sulzfeld, Germany) or BALB/c nude (BALB/c Nude Spontaneous Mutant Mice (homozygotes) available from Taconic Europe, Ry, Denmark) mice. The cells are thawed and expanded in vitro before use in the experiment. Mice are assigned to the treatment groups 14-21 days after cell injection. […] The subcutaneous primary tumors are measured twice weekly, starting prior to randomisation, in two dimensions (length and width) using an electronic caliper. The volume of the primary tumor is calculated using the formula: V[mm^3]=(length [mm]×width [mm]×width [mm])/2. In addition, the body weight of all animals is recorded at least twice weekly. […]
In one example of the above procedure, treatment was started on or about the 20th-21st day of the experiment (after cell injection) and the treatment was carried out for 23 days (about 44 days of experiment). In this example, primary tumor volume was calculated according to NCI protocol (TW=½ ab^2, where a and b were long and short diameters of tumor mass in mm). […] Tumor weight was determined by analytic scale at termination (day 44/45). […]

SMILES | IC50 (A549 cells; Homo sapiens, 120 h) [µM] | IC50 (A549 cells) [µM] | IC50 (HEK293 cells) [µM] | Tumor Growth Inhibition (TGI) (A549-Cell-Xenograft) [%]
FC(F)(F)Oc1ccc(/C=C/c2nc(COc3ccc(CCCCc4c[nH]nn4)cc3)co2)cc1 [Example 1.1, 4-[4-(4-{2-[(E)-2-(4-Trifluoromethoxy-phenyl)-vinyl]-oxazol-4-ylmethoxy}-phenyl)-butyl]-1H-[1,2,3]triazole] | 0.2 to 1 | – | 0.128 | –
Cn1nncc1CCCCc1ccc(OCc2coc(/C=C/c3ccc(OC(F)(F)F)cc3)n2)cc1 [Example 1.2, Methyl-5-[4-(4-{2-[(E)-2-(4-trifluoromethoxy-phenyl)-vinyl]-oxazol-4-ylmethoxy}-phenyl)-butyl]-1H-[1,2,3]triazole] | – | 0.007 | – | 50
FC(F)(F)Oc1ccc(/C=C/c2nc(COc3ccc(CCCCc4nn[nH]n4)cc3)co2)cc1 [Example 2.1, 5-[4-(4-{2-[(E)-2-(4-Trifluoromethoxy-phenyl)-vinyl]-oxazol-4-ylmethoxy}-phenyl)-butyl]-2H-tetrazole] | 0.2 to 1 | – | 0.25 to 1.5 | –
Cn1nnc(CCCCc2ccc(OCc3coc(/C=C/c4ccc(OC(F)(F)F)cc4)n3)cc2)n1 [Example 2.3, Methyl-5-[4-(4-{2-[(E)-2-(4-trifluoromethoxy-phenyl)-vinyl]-oxazol-4-ylmethoxy}-phenyl)-butyl]-2H-tetrazole] | 0.005 to 0.2 | – | – | –
OCCn1nnnc1CCCCc1ccc(OCc2coc(C=Cc3ccc(OC(F)(F)F)cc3)n2)cc1 [Example 2.4, 2-{5-[4-(4-{2-[2-(4-Trifluoromethoxy-phenyl)-vinyl]-oxazol-4-ylmethoxy}-phenyl)-butyl]-tetrazol-1-yl}-ethanol] | 0.2 to 1 | – | 0.25 to 1.5 | –
OCCn1nnc(CCCCc2ccc(OCc3coc(C=Cc4ccc(OC(F)(F)F)cc4)n3)cc2)n1 [Example 2.5, 2-{5-[4-(4-{2-[2-(4-Trifluoromethoxy-phenyl)-vinyl]-oxazol-4-ylmethoxy}-phenyl)-butyl]-tetrazol-2-yl}-ethanol] | 0.005 to 0.2 | – | – | –
Cc1cc(OCc2coc(/C=C/c3ccc(OC(F)(F)F)cc3)n2)ccc1CCCCc1cnn(C)n1 [Example 3.2, 2-Methyl-4-[4-(2-methyl-4-{2-[(E)-2-(4-trifluoromethoxy-phenyl)-vinyl]-oxazol-4-ylmethoxy}-phenyl)-butyl]-2H-[1,2,3]triazole] | – | – | – | 72

The next lines start with results.

IC50 (A549 cells; Homo sapiens, 120 h) [µM] | IC50 (A549 cells) [µM] | SMILES | IC50 (HEK293 cells) [µM] | Tumor Growth Inhibition (TGI) (A549-Cell-Xenograft) [%]
0.005 to 0.2 | – | Cn1ncc(CCCCc2ccc(OCc3coc(/C=C/c4ccc(OC(F)(F)F)cc4)n3)cc2)n1 [Example 1.3, 2-Methyl-4-[4-(4-{2-[(E)-2-(4-trifluoromethoxy-phenyl)-vinyl]-oxazol-4-ylmethoxy}-phenyl)-butyl]-2H-[1,2,3]triazole] | – | –
0.005 to 0.2 | – | Cn1cc(CCCCc2ccc(OCc3coc(/C=C/c4ccc(OC(F)(F)F)cc4)n3)cc2)nn1 [Example 1.4, 1-Methyl-4-[4-(4-{2-[(E)-2-(4-trifluoromethoxy-phenyl)-vinyl]-oxazol-4-ylmethoxy}-phenyl)-butyl]-1H-[1,2,3]triazole] | 0.005 to 0.25 | –
0.017 | – | Cn1nnnc1CCCCc1ccc(OCc2coc(/C=C/c3ccc(OC(F)(F)F)cc3)n2)cc1 [Example 2.2, Methyl-5-[4-(4-{2-[(E)-2-(4-trifluoromethoxy-phenyl)-vinyl]-oxazol-4-ylmethoxy}-phenyl)-butyl]-1H-tetrazole] | 0.005 to 0.25 | –
